Patent publication US7972611B2, “Fungus-induced inflammation and eosinophil degranulation” (Mayo Foundation for Medical Education and Research, priority 2005, dated 2011)
Starred links: 1 amine or outer side, 2 acyl side, 3 side chain; linkers in the order of their positions; H or OH if unused. Residues, ends and D or L forms follow the SMILES beside them. CO = O=C([*:1])[*:2]

B1: Calpastatin (protein, UniProt P20810 1-708, looked up)
Calpastatin: MNPTETKAIPVSQQMEGPHLPNKKKHKKQAVKTEPEKKSQSTKLSVVHEKKSQEGKPKEHTEPKSLPKQASDTGSNDAHNKKAVSRSAEQQPSEKSTEPKTKPQDMISAGGESVAGITAISGKPGDKKKEKKSLTPAVPVESKPDKPSGKSGMDAALDDLIDTLGGPEETEEENTTYTGPEVSDPMSSTYIEELGKREVTIPPKYRELLAKKEGITGPPADSSKPIGPDDAIDALSSDFTCGSPTAAGKKTEKEESTEVLKAQSAGTVRSAAPPQEKKRKVEKDTMSDQALEALSASLGTRQAEPELDLRSIKEVDEAKAKEEKLEKCGEDDETIPSEYRLKPATDKDGKPLLPEPEEKPKPRSESELIDELSEDFDRSECKEKPSKPTEKTEESKAAAPAPVSEAVCRTSMCSIQSAPPEPATLKGTVPDDAVEALADSLGKKEADPEDGKPVMDKVKEKAKEEDREKLGEKEETIPPDYRLEEVKDKDGKPLLPKESKEQLPPMSEDFLLDALSEDFSGPQNASSLKFEDAKLAAAISEVVSQTPASTTQAGAPPRDTSQSDKDLDDALDKLSDSLGQRQPDPDENKPMEDKVKEKAKAEHRDKLGERDDTIPPEYRHLLDDNGQDKPVKPPTKKSEDSKKPADDQDPIDALSGDLDSCPSTTETSQNTAKDKCKKAASSSKAPKNGGKAKDSAKTTEETSKPKDD
B2: SEQ ID NO:2: polypeptide of SEQ ID NO:2, Alternaria alternata endoxylanase, recombinantly produced in E. coli (protein, listed as Alternaria brassicicola)
chain: MHFRGSSIYFGIVALSSTSAVLGAVAPYGQCGGNGFQGETECAQGWSCVKSNDWYSQCINGGGNAPAPPAATGVAPAPVIPSAAPVPSMNASEPVAAPVAVAQPAATGGANGSAPDVAGTGANGAKCSLDAAFKSHGKKYIGVATDQGALSKGKNKEIIVANFGQVTPENSMKWDATEGTEGKFTLDGANALVSFATENKKLVRGHTTVWHSQLPTWVSSITDKTKLEEVMVAHIKKLMSTYAGKVYAWDVVNEIFNEDGSFRSSVFYNVLGENFVATAFATAKAADPEAKLYINDYNLDSPSYAKTKAMASNVKKWVAAGVPIDGIGSQSHLSGSWPISDYPAALKLLCESASECAMTELDIKGGAAADYKTAVTACLDVENCVGVTVWGVSDTDSWIGAAATPLLFDGSFQAKESYNGLCSALA
B3: papain: cysteine protease (protein, UniProt P00784 134-345, looked up)
Papain: IPEYVDWRQKGAVTPVKNQGSCGSCWAFSAVVTIEGIIKIRTGNLNEYSEQELLDCDRRSYGCNGGYPWSALQLVAQYGIHYRNTYPYEGVQRYCRSREKGPYAAKTDGVRQVQPYNEGALLYSIANQPVSVVLEAAGKDFQLYRGGIFVGPCGNKVDHAVAAVGYGPNYILIKNSWGTGWGENGYIRIKRGTGNSYGVCGLYTSSFYPVKN
B4: Der f1: natural mite allergen protease (protein, UniProt P16311 99-321, looked up)
Peptidase 1: TSACRINSVNVPSELDLRSLRTVTPIRMQGGCGSCWAFSGVAATESAYLAYRNTSLDLSEQELVDCASQHGCHGDTIPRGIEYIQQNGVVEERSYPYVAREQRCRRPNSQHYGISNYCQIYPPDVKQIREALTQTHTAIAVIIGIKDLRAFQHYDGRTIIQHDNGYQPNYHAVNIVGYGSTQGDDYWIVRNSWDTTWGDSGYGYFQAGNNLMMIEQYPYVVIM

test system: eosinophils; test: not given; type: cell-based, human; conditions: not given
Protocol: FIG. 9. […] Alternaria extract, trypsin, or PMA was pretreated with pepstatin A agarose, control agarose, or APMSF, and added to the PAR-2 peptide substrate (Panel A) or eosinophils (Panel B).
(§1) To monitor eosinophil function in response to extracts from Alternaria, degranulation of human eosinophils was measured by quantitating released eosinophil-derived neurotoxin (EDN) and/or MBP. In brief, freshly isolated eosinophils were suspended in HBSS with 25 mM HEPES and 0.01% gelatin at 5×10^5 cells/mL. Eosinophils and stimuli were incubated in 96-well tissue culture plates for 3 hours at 37° C. and 5% CO^2. Cell-free supernatants were stored at −20° C. A specific RIA quantitated eosinophil degranulation by measuring the concentration of EDN in the supernatants.

Molecule | Alternaria-induced eosinophil [Ca2+]i response and degranulation, sensitivity to pertussis toxin | eosinophil degranulation (EDN release) induced by Alternaria extract
pertussis toxin | sensitive | –
O=C(O)CN(CCN(CC(=O)O)CC(=O)O)CC(=O)O [EDTA] | – | inhibited

same assay, conditions: 3 hours at 37° C.

Molecule | eosinophil degranulation (EDN release) induced by Alternaria extract
CN(C)CCCn1cc(C2=C(c3c[nH]c4ccccc34)C(=O)NC2=O)c2ccccc21 [GF109203X] | did not inhibit
CCCCCCCCCCCCCCCCCCNC(=O)OCC(COC(=O)N(Cc1cccc[n+]1CC)C(C)=O)OC (stereo not shown) [CV6209] | inhibited
C=CC[C@@H]1/C=C(\C)C[C@H](C)C[C@H](OC)[C@H]2O[C@@](O)(C(=O)C(=O)N3CCCC[C@H]3C(=O)O[C@H](/C(C)=C/[C@@H]3CC[C@@H](O)[C@H](OC)C3)[C@H](C)[C@@H](O)CC1=O)[C@H](C)C[C@@H]2OC [FK 506] | did not inhibit
C=C1[C@@H](C)[C@H]2[C@H](Cc3ccccc3)NC(=O)[C@]23OC(=O)/C=C/[C@H](O)CCC[C@@H](C)C/C=C/[C@H]3[C@@H]1O [Cytochalasin B] | did not inhibit
NCCCCCCNS(=O)(=O)c1cccc2c(Cl)cccc12 [W-7] | did not inhibit
Cc1ccc(S(=O)(=O)N[C@@H](CCCCN)C(=O)CCl)cc1 [TLCK] | did not inhibit
CC(C)C[C@H](NC(=O)[C@@H](NC(=O)N[C@@H](Cc1ccccc1)C(=O)O)[C@@H]1CCN=C(N)N1)C(=O)N[C@H](C=O)Cc1ccccc1 [Chymostatin] | did not inhibit
COC[C@H]1OC(=O)c2coc3c2[C@@]1(C)C1=C(C3=O)[C@@H]2CCC(=O)[C@@]2(C)C[C@H]1OC(C)=O [Wortmannin] | did not inhibit
COc1cc2c(c(OC)c1OC)-c1ccc(OC)c(=O)cc1[C@@H](NC(C)=O)CC2 [Colchitin] | did not inhibit
CC(=O)N[C@@H](CC(C)C)C(=O)N[C@@H](CC(C)C)C(=O)N[C@H](C=O)CCCNC(=N)N [Leupeptin] | did not inhibit
CC(=O)c1c(O)c(C)c(O)c(Cc2c(O)c3c(c(C(=O)/C=C/c4ccccc4)c2O)OC(C)(C)C=C3)c1O [Rottelrin] | did not inhibit
Cl.NCCc1ccc(S(=O)(=O)F)cc1 [Pefabloc SC] | did not inhibit
O=c1c(-c2ccc(O)cc2)coc2cc(O)cc(O)c12 [Genistein] | did not inhibit
[La] [Lanthunum] | inhibited
CCN(CC)CCCC(C)Nc1ccnc2cc(Cl)ccc12 (stereo not shown) [Chloroquine] | did not inhibit
C[S+]([O-])c1ccc(-c2nc(-c3ccncc3)c(-c3ccc(F)cc3)[nH]2)cc1 (stereo not shown) [SB203580] | did not inhibit
CC(C)[C@H](NC(=O)[C@H](CCCNC(=N)N)NC(=O)N[C@@H](Cc1ccccc1)C(=O)O)C(=O)N[C@H](C=O)CCCNC(=N)N [Antipain] ({Phe-CO}-Arg-Val-Arg-aldehyde) | did not inhibit
Cn1cc(C2=C(c3cn(CCCSC(=N)N)c4ccccc34)C(=O)NC2=O)c2ccccc21 [Ro-31-8220] | did not inhibit
Aprotinin | did not inhibit
Jasplakinlide | inhibited
CC(C)C[C@H](NC(=O)[C@@H](O)[C@H](N)Cc1ccccc1)C(=O)O [Bestatin] | did not inhibit
O=C(O)CN(CCOCCOCCN(CC(=O)O)CC(=O)O)CC(=O)O [EGTA] | inhibited
heparin | inhibited
CC(C)C[C@H](NC(=O)[C@H]1O[C@@H]1C(=O)O)C(=O)NCCCCN=C(N)N [E64] | did not inhibit
CC(C)C[C@H](NP(=O)(O)O[C@@H]1O[C@@H](C)[C@H](O)[C@@H](O)[C@H]1O)C(=O)N[C@@H](Cc1c[nH]c2ccccc12)C(=O)O [Phosphoramidon] | did not inhibit
COc1cccc(-c2cc(=O)c3ccccc3o2)c1N [PD98059] | did not inhibit
B1 | did not inhibit

test system: human eosinophils; test: Eosinophil degranulation (EDN release) and activation by fungal extracts and proteins; type: cell-based; conditions: eosinophils incubated with stimulus
Protocol: FIG. 5. Effects of fungi on eosinophil degranulation. Eosinophils were incubated with culture extracts of various fungi for 3 hours.
FIG. 21. Effects of Trichoderma xylanase on eosinophil degranulation (Panel A). Effects of Trichoderma xylanase on IL-5 production in mouse airways (Panel B). Panel A: Eosinophils were incubated with various concentrations of Trichoderma xylanase for 3 hours. EDN concentrations in the supernatants were measured by RIA as an indicator of degranulation. Panel B: Naive BALB/c mice were exposed intranasally to various doses of Trichoderma xylanase. After 12 hours, BAL fluids were collected and the concentrations of IL-5 were measured by ELISA. Mean±range, n=2.
FIG. 25. Partial characterization of Alternaria extract. A, Before incubation with eosinophils, aliquots of 100 μg/mL Alternaria and 10 ng/mL IL-5 were heated at 37, 56, or 100° C. for 30 min or were treated at 4° C. for 30 min. Eosinophils were incubated in duplicate with these treated stimuli for 3 hours at 37° C. […] The molecular weight calibration of the column is shown above the elution profile.
The following was performed to determine whether human eosinophils have an innate capacity to respond to environmental fungal organisms. Human eosinophils were incubated with extracts from common environmental airborne fungi.
as §1

Molecule | eosinophil degranulation (EDN release)
B2 | stimulated eosinophil degranulation

same assay, conditions: through PAR-2

Molecule | activation of human eosinophils by proteases
B3 | activated
B4 | activated

same assay, conditions: treatment at 56° C. or lower temperatures

Molecule | loss of activity to induce EDN release after treatment
IL-5: cytokine | not

same assay, conditions: treatment at 100° C.

Molecule | activity to induce EDN release after heat treatment
IL-5: cytokine | abolished
